In US20120100204A1, “TGF-Beta Stimulating Agent Compositions and Combinations” (TCP INNOVATIONS LTD, priority 2007, published 2012):

How the values were obtained:
fibrin(ogen) = fibrin(ogen) deposition into the blood vessel wall, quantitative immunofluoresence
Excerpt: (§1) Adult male apoE-deficient mice, back-crossed onto a C57B16 background for at least five generations, were randomised into groups of eight animals at 12 weeks of age, such that each group had similar average body weight. […] The amount of food eaten and the body weight of each mouse was monitored daily for the first week, and once per week thereafter. After 12 weeks of treatment, the mice were sacrificed by CO2 asphyxiation, and heart & lung blocks were excised, embedded in Cryo-M-bed (Bright Instruments, UK) without fixation and snap frozen in liquid nitrogen.
(§2) Sections were then prepared from the aortic root according to the Paigen Strategy (a defined sequence of cutting sections which allow reproducible comparison between animals; see for example Grainger et al. (1995) Nature Med. 1:1067-72 and the references therein). 4 μm crysosections were cut using a motordriven cryotome (Bright Instruments) and collected onto poly-L-lysine coated glass microscope slides, then fixed in ice-cold acetone for 90 secs, allowed to air dry and stored at −20° C. until analysed.
The level of fibrin or fibrinogen deposited into the vessel wall was also estimated by quantitative immunofluoresence, using a method identical to that for TGF-beta1, except that the primary antibody was sheep anti-fibrin(ogen) (Chemicon; 2 μg/ml) and the secondary antibody was donkey anti-sheep IgG minimum cross-reactivity, FITC labelled (Jackson Immunoresearch), as previously described (Thromb Res. 2001 Apr. 1; 102(1):71-80).
Adult male apoE-deficient mice were treated, in groups of 8, with fish oil (Seven Seas, UK), aspirin or both agents simultaneously from 12 weeks of age until 24 weeks of age, exactly as described in Example 2.
The levels of TGF-beta1 and fibrin(ogen) in the vessel wall were determined by quantitative immunofluoresence, exactly as described in example 2.

TGF-beta1 = TGF-beta1 protein in the blood vessel wall, quantitative immunofluoresence; type: in vivo; details: apoE mice; for TGF-b1 staining: Aspirin 30 mg/kg/day, mean ± SD
Excerpt: as §1, §2

tgfb3 mRNA = tgfb3 mRNA level by quantitative PCR in human aortic vascular smooth muscle cells; type: cell-based; details: 24 hrs
Experimental: (1995) Cardiovasc. Res. 29:848-55). […] The cells were then incubated for either 24 hrs or 72 hrs depending on the experiment. All treatment conditions were established in triplicate. The level of mRNA for tgfb1, tgfb2 and tgfb3 were estimated by quantitative PCR. The media was removed and RNA was carefully prepared using the Ambion RNAqueous4PCR kit (Ambion#1914) in accordance with the manufacturer's instructions. The purity of the RNA and the quantity was assessed spectrophotometrically. […] This analysis results in both a gel-like image as well as electrophoretic data. Indications of RNA degradation are: (a) decreasing ratio of ribosomal bands (b) additional peaks bellow the ribosomal bands (c) Decrease in overall RNA signal (d) shift towards shorter fragments. […] Next, the RNA was converted to cDNA using the ABI High-Capacity cDNA Archive Kit, in accordance with manufacturer's instructions. […] Samples were vortexed to ensure thorough mixing. cDNA was aliquoted into ABI 384 well plates using a multi-channel pipette, 4.5 μl of sample into each well. Samples were assayed in triplicate (that is, nine determinations in total were made for each condition, being three separate assays on each of three replicate culture wells). The assay mix and Universal Master Mix were prepared and aliquoted across the 384 well plates 5.5 μl in each well, using a single channel pipette. […] Universal Master Mix=5 μl; cDNA=4.5 μl. The plates were then heat sealed using Abgene clear seal strong plastic heat seals, and then cycled and scanned using the ABI 9700HT under the following conditions: 95° C. for 10 minutes to activate the AmpliTaq GOLD, then 40 cycles of: 95° C. for 15 sec (Denaturation), 60° C. for 60 […]). […] Quantitative PCR was performed using several primer/probe sets. […] We used both commercially available primer/probe sets (ABI Taqman pre-validated assays), using both available sets in the ABI database for tgfb1 and tgfb2, as well as the single available set for tgfb3. In addition, we used our own manual design probe/primer set for each of tgfb1, tgfb2 and tgfb3. […] In all quantitative PCR experiments, several additional controls were included: firstly, a control for each sample is run with no reverse transcription to ensure the mRNA sample is not contaminated with genomic DNA (although the manual design probe/primer sets were all selected to cross an exon/exon boundary, ensuring no detectable amplicon is produced from genomic DNA templates). […] Failure of either control led to the repeat of the entire experiment.

TGF-beta1 protein = test: total TGF-beta1 protein in conditioned medium, Quantikine ELISA; type: cell-based, human; details: 24 hrs or 72 hrs; any dose tested (Tamoxifen up to 33 μM, aspirin up to 100 μM)
Experimental: The cells were cultured (37° C.; 5% CO2) in DMEM+20% foetal calf serum (FCS), and subcultured every 5 days at 1:2 dilution, using 0.02% trypsin/EDTA (Gibco).
For the experiments, the cells were subcultured into 12-well cluster plates at 1×10^5 cells/cm^2, and allowed to grow for 24 hrs. […] The cells were then incubated for either 24 hrs or 72 hrs depending on the experiment. All treatment conditions were established in triplicate.
TGF-beta1 protein levels in the medium was measured using the Quantikine ELISA kit (R&D Systems) in accordance with the manufacturer's instructions, except that the medium was pre-activated by addition of an equal volume of 2.7M HCl 10M Urea, and then neutralised by addition of the same volume of 1M HEPES 2M NaOH. […] Note that TGF-beta proteins are well known to interact with many different matrix proteins and cell surface proteins, including proteoglycans, low affinity type III receptors, fibronectin and collagen, and consequently the amount of TGF-beta protein in the medium may not represent the total amount synthesised by the cells, and a negative result in the assay for TGF-beta protein may represent a false negative.

Row | SMILES | effect on fibrin(ogen) deposition into the blood vessel wall (in words) (fibrin(ogen); mouse, in vivo) | TGF-b1 staining (TGF-beta1; 12 weeks, TMX 1 mg/kg/day) | level of TGF-beta1 in the blood vessel wall (in words) (TGF-beta1; Example 2) | level of TGF-beta1 in the blood vessel wall (in words) (TGF-beta1; Example 3) | TGF-b1 staining (TGF-beta1; Fish oils 100 mg/kg/day) | Level of mRNA, estimated by qPCR: tgfb3 (tgfb3 mRNA; 10 μM A) | Level of mRNA, estimated by qPCR: tgfb3 (tgfb3 mRNA; 33 μM A) | Level of mRNA, estimated by qPCR: tgfb3 (tgfb3 mRNA; 100 μM A) | effect on total TGF-beta1 protein levels in conditioned medium (TGF-beta1 protein) | Fibrin(ogen) staining (fibrin(ogen); apoE mice, 12 weeks, TMX 1 mg/kg/day, Aspirin 30 mg/kg/day, mean ± SD) | increase of fibrin(ogen) deposition into the vessel wall (fibrin(ogen); apoE mice, Tamoxifen 1 mg/kg/day, vs control) | Level of mRNA, estimated by qPCR: tgfb3 (tgfb3 mRNA; 3.3 μM T) | Level of mRNA, estimated by qPCR: tgfb3 (tgfb3 mRNA; 10 μM T) | Level of mRNA, estimated by qPCR: tgfb3 (tgfb3 mRNA; 33 μM T) | doses that significantly increased tgfb3 mRNA (tgfb3 mRNA)
1 | CC(=O)Oc1ccccc1C(=O)O [Aspirin, acetylsalicylic acid] | significantly reduced | 65 ± 11 AU | no effect | no effect | 65 ± 11 AU | 1.09 ± 0.08 fold-change | 1.06 ± 0.13 fold-change | 0.94 ± 0.09 fold-change | no statistically significant effect | – | – | – | – | – | –
2 | CC/C(=C(\c1ccccc1)c1ccc(OCCN(C)C)cc1)c1ccccc1 [Tamoxifen] | – | 94 ± 9 AU | increased | – | – | – | – | – | no statistically significant effect | 151 ± 7 AU | 23% | 0.92 ± 0.16 fold-change | 1.19 ± 0.21 fold-change | 1.31 ± 0.11 fold-change | ≥ 10 µM
